Values quoted from earlier work, collected in publication PMC8236845.
Read-outs that look alike come from different tables or passages of the source. Numbered stars: 1 amine (or outer) side, 2 acyl side, 3 side chain; on linkers, the order of the positions; unused ones are H or OH. Bridge positions count the residues as written; N and C are the ends. Square brackets hold non-standard residues; d marks the D form. Peptide text beside a SMILES is read from it. * marks the point of attachment. pTerphenylCO(4''-OnC5H11) = CCCCCOc1ccc(-c2ccc(-c3ccc(C(=O)*)cc3)cc2)cc1; Orn(4R-OH,5R-OH) = O=C([C@H](C[C@@H](O)[C@@H](O)N[*:3])N[*:1])[*:2]; hTyr(3S-OH,4S-OH) = N[C@H](C(=O)O)[C@H](O)[C@@H](O)c1ccc(O)cc1; Pro(3S-OH,4S-Me) = C[C@H]1CN[C@H](C(=O)O)[C@H]1O; Hyp = O=C(O)[C@@H]1C[C@@H](O)CN1

Key:
[1] = human, in vivo, cited from earlier work
SARS-CoV-1 = conditions: cited from earlier work
SARS-CoV-2 = conditions: 2021, cited from earlier work
[2] = tested on: Middle Eastern Respiratory Syndroms (MERS) coronaviruses; conditions: cited from earlier work
[3] = used in the context of chemotherapy, cited from earlier work
[4] = tested on: SARS-CoV-2-related Pangolin corona virus; conditions: cited from earlier work
[5] = cited from earlier work
[6] = DOGS topical 24 mg/kg, ref Sarasola et al. (2002)

CCCCCOc1ccc(-c2ccc(-c3ccc(C(=O)N[C@H]4C[C@@H](O)[C@@H](O)NC(=O)[C@@H]5[C@@H](O)[C@@H](C)CN5C(=O)[C@H]([C@@H](C)O)NC(=O)[C@H]([C@H](O)[C@@H](O)c5ccc(O)cc5)NC(=O)[C@@H]5C[C@@H](O)CN5C(=O)[C@H]([C@@H](C)O)NC4=O)cc3)cc2)cc1 [Anidulafungin] ({pTerphenylCO(4''-OnC5H11)}-[Orn(4R-OH,5R-OH)]T[Hyp][hTyr(3S-OH,4S-OH)]T[Pro(3S-OH,4S-Me)]; lactam 1-C)
C max (ng/ml) ([1]; iv): 2,500 ng/ml
Cmax ([1]; iv): 2200 nM

Cc1nc(Nc2ncc(C(=O)Nc3c(C)cccc3Cl)s2)cc(N2CCN(CCO)CC2)n1 [Dasatinib]
inhibition of SARS-CoV-1 (SARS-CoV-1): reported to inhibit
inhibition of SARS-CoV-2 in cell-culture-based studies (SARS-CoV-2; ref Cagno et al.): failed to inhibit
inhibition of MERS coronavirus [2]: reported to inhibit

CC(=O)O[C@@]12CO[C@@H]1C[C@H](O)[C@@]1(C)C(=O)[C@H](O)C3=C(C)[C@@H](OC(=O)[C@H](O)[C@@H](NC(=O)OC(C)(C)C)c4ccccc4)C[C@@](O)([C@@H](OC(=O)c4ccccc4)[C@H]21)C3(C)C [Docetaxel]
side effects ([3]; ref Gustafson et al., 2003): moderate to severe side effects
C max ([1]; iv): 933 ng/mL
Cmax ([1]; iv): 1230 nM

C[C@]12CC[C@@H]3c4ccc(OC(=O)c5ccccc5)cc4CC[C@H]3[C@@H]1CC[C@@H]2O [Estradiol benzoate]
C max ([1]; im, 5 mg): 0.75 ng/mL
Cmax ([1]; im, 5 mg): 2 nM
inhibition of SARS-COV-2 replication in culture (SARS-CoV-2; ref Yang et al.): reported to inhibit

Cc1ccc(NC(=O)c2ccc(CN3CCN(C)CC3)cc2)cc1Nc1nccc(-c2cccnc2)n1 [Imatinib]
inhibition of SARS-CoV-1 (SARS-CoV-1): reported to inhibit
inhibition of SARS-CoV-2 in cell-culture-based studies (SARS-CoV-2; ref Cagno et al.): failed to inhibit
inhibition of MERS coronavirus [2]: reported to inhibit

Cc1cn(-c2cc(NC(=O)c3ccc(C)c(Nc4nccc(-c5cccnc5)n4)c3)cc(C(F)(F)F)c2)cn1 [Nilotinib AMN-107, Nilotinib]
C max (ng/ml) ([1]; po, 300 mg): 1,360 ng/ml
Cmax ([1]; po, 300 mg): 2570 nM
IC50 (SARS-CoV-2; ref Cagno et al., read-out: IC50 of inhibition of SARS-CoV-2 infection in vitro): 1500 to 3000 nM

CC[C@H](C)[C@@H]1NC(=O)[C@H](Cc2ccc(O)cc2)NC(=O)[C@@H](N)CSSC[C@@H](C(=O)N2CCC[C@H]2C(=O)N[C@@H](CC(C)C)C(=O)NCC(N)=O)NC(=O)[C@H](CC(N)=O)NC(=O)[C@H](CCC(N)=O)NC1=O [Oxytocin]
C max ([1]; inhaled or intranasal, 44 ug): 0.005 ng/mL
Cmax ([1]; inhaled or intranasal, 44 ug): 5 nM
C max ([1]; iv): 0.005 ng/mL
Cmax ([1]; iv): 5 nM

COc1cc([C@@H]2c3cc4c(cc3[C@H](O)[C@H]3COC(=O)[C@@H]23)OCO4)cc(OC)c1OC [Picropodophyllin]
side effects ([3]; ref Ekman et al., 2016): moderate to severe side effects
C max (ng/ml) ([1]; po, 520 mg): 207–1,035 ng/ml
Cmax ([1]; po, 520 mg): 500 to 2500 nM

CO[C@H]1C[C@H](O[C@@H]2/C(C)=C/C[C@@H]3C[C@@H](C[C@]4(CC[C@H](C)[C@@H](C5CCCCC5)O4)O3)OC(=O)[C@@H]3C=C(C)/C(=N/O)[C@H]4OC/C(=C\C=C\[C@@H]2C)[C@]43O)O[C@@H](C)[C@@H]1O [Selamectin]
inhibition of cytopathic effect [4]: inhibited the cytopathic effect
Cmax ([5]; DOGS oral 24 mg/kg, ref Sarasola et al. (2002)): 9900 nM
C max [5, 6]: 86.5 ng/mL
Cmax [5, 6]: 110 nM
tolerability ([5]; oral, dogs, ref Sarasola et al., 2002): well tolerated
